Assay results published in patent publication US20180202936A1, “Modified Hydrocyanine Dyes for the Detection of Reactive Oxygen Species” (Life Technologies Corporation, priority 2010, published 2018).

Experiments:
Type in all cases: cell-based
HepG2 cells = assay: Multiplexed measurement of oxidative stress, cytotoxicity and apoptosis in HepG2 cells (Example 10); details: 50 μM Nefazodone 24 h
Description: For the last 30 min of Nefazodone treatment, the cells were either stained with 5 μM Far Red ROS Sensor and 20 nM Image-IT® DEAD Green™ viability stain (Life Technologies Corp., Carlsbad, Calif.), FIG. 10a) or 5 μM Far Red ROS Sensor and 5 μM fluorogenic CaspaGreen caspase substrate (FIG. 10b). […] Image-iT® DEAD Green™ measures plasma membrane permeability, a marker for cytotoxicity.

Live Jurkat cells = assay: Flow cytometry of ROS formation in live Jurkat cells (Example 4); details: 100 μM Menadione or 500 nM PMA, 1 hr; 5 μM Far Red ROS Sensor 30 min; 635 nm excitation, emission 650-670 nm
Description: Live Jurkat cells were treated with or without either 100 μM Menadione or 500 nM phorbol myristate acetate (PMA) for 1 hr. The cells were stained with 5 μM Far Red ROS Sensor and Hoechst 33342 for 30 mins. The cells were washed 3 times with PBS and then analyzed at approximately 400 events per second on a BD® LSR II flow cytometer (Beckton Dickinson, Franklin Lakes, N.J.) with 635 nm laser excitation and fluorescence emission collected from 650-670 nm.

RAW macrophages = assay: Specificity of ROS signal: NADPH oxidase inhibitor in LPS-treated RAW cells (Example 8); details: 500 ng/mL LPS; Far Red ROS Sensor readout
Description: (§1) BPAE cells or RAW macrophages were plated in 96-well plates. BPAE cells were treated with or without 100 μM Menadione for 1 h. 100 μM of superoxide scavenger, MnTBAP was added to some of the control and menadione-treated wells for the last 30 min of incubation. RAW cells were treated with or without 500 ng/mL of Lipopolysachharide (LPS) with or without Diphenylenelodinium (DPI), an NADPH oxidase inhibitor.

BPAE cells = assay: Specificity of ROS signal: superoxide scavenger in menadione-treated BPAE cells (Example 8); details: 100 μM MnTBAP, last 30 min; 100 μM Menadione 1 h; Far Red ROS Sensor readout
Description: as §1

CCc1nn(CCCN2CCN(c3cccc(Cl)c3)CC2)c(=O)n1CCOc1ccccc1 [Nefazodone] was tested, and the “apoptosis (fluorogenic CaspaGreen caspase substrate)” value (HepG2 cells; 5 μM CaspaGreen caspase substrate) was “increased nuclear staining” and the “oxidative stress (Far Red ROS Sensor)” value (HepG2 cells; 5 μM Far Red ROS Sensor) was “causes oxidative stress”.
CCCCCCCCCCCCCC(=O)O[C@@H]1[C@@H](C)[C@@]2(O)[C@@H](C=C(CO)C[C@]3(O)C(=O)C(C)=C[C@@H]23)[C@@H]2C(C)(C)[C@]12OC(C)=O [PMA, phorbol myristate acetate] was tested, and the “ROS formation after treatment” value (Live Jurkat cells) was “increase in ROS formation”.
CC1=CC(=O)c2ccccc2C1=O [Menadione] was tested, and the “ROS formation after treatment” value (Live Jurkat cells) was “increase in ROS formation”.
With c1ccc2c(c1)[I+]c1ccccc1-2 [DPI, Diphenylenelodinium] the “effect on ROS caused by LPS” value (RAW macrophages) was “inhibited ROS”.
With O=C(O)c1ccc(/C2=C3\C=CC(=N3)/C(c3ccc(C(=O)O)cc3)=c3/cc/c4[n]3[Mn]([Cl])[n]3c2ccc3/C(c2ccc(C(=O)O)cc2)=C2/C=CC(=N2)\C=4c2ccc(C(=O)O)cc2)cc1 [MnTBAP] the “effect on ROS caused by Menadione” value (BPAE cells) was “inhibited ROS”.
